In patent US8138188B2, “Melanocortin type 4 receptor agonist piperidinoylpyrrolidines” (Pfizer Inc., priority 2006, dated 2012):

Columns and labels:
[1] = biological target: T1, human MC3 receptor (Homo sapiens, UniProt P41968); assay: In vitro agonist potency (EC50) against melanocortin receptor type 3, cAMP in recombinant cell line; format: cell-based; conditions: cell line stably transfected with human MC3, 1 hour at 37° C.
T1 construct: stably transfected with full length cDNA encoding human MC1 or MC3 receptors; expressed in transfected cells; host or cells: Chinese hamster ovary cell line (MC3; 'respectively')
T1 sequence (P41968 whole entry): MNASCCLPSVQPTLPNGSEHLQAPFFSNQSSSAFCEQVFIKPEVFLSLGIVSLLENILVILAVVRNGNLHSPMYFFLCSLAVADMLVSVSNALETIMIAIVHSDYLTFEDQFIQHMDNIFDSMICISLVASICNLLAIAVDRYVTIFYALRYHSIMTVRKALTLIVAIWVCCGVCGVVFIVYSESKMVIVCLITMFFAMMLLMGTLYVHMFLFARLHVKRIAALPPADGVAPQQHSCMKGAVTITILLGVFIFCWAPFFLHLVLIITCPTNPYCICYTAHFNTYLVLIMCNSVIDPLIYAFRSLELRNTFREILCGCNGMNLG
Method: Measurement of In Vitro Agonist Potency (EC50) of Compounds Against Melanocortin Receptors Type 1 and 3 (MC1 and MC3).
Activation of melanocortin (MC) receptors by agonists results in activation of intracellular adenylate cyclase enzymes that synthesise the second messenger signalling molecule, adenosine 3′,5′-cyclic monophosphate (cAMP). Changes in cAMP levels following treatment of recombinant MC1 and MC3 cell lines with test compound were measured and an MC1 and MC3 potency estimate (EC50) calculated as follows: […]
Human embryonic kidney (HEK) or Chinese hamster ovary cell lines stably transfected with full length cDNA encoding human MC1 or MC3 receptors, respectively, were established using standard molecular biology methods. Test compounds were dissolved in dimethyl sulfoxide (DMSO) at 4 mM. 11 point half log unit increment dilution series of test compound, typically starting at 50 uM were prepared in a buffer comprised of phosphate buffered saline (PBS), 2.5% DMSO and 0.05% pluronic F-127 surfactant. Freshly cultured cells at 80-90% confluence were harvested and re-suspended in Dulbecco's Modified Eagle's Medium (DMEM). Cells (10,000 for MC3, 20,000 for MC1) were added to the test compound dilution series in a 384 well assay plate and incubated for 1 hour at 37° C. The relative cAMP concentration in each well was then measured using a β-galactosidase enzyme fragment complementation method purchased in kit form as the Discoverx cAMP II kit from GE Healthcare/Amersham Biosciences UK. In the case of MC1,3-Isobutyl-1-methylxanthine (IBMX) at a concentration of 750 μM was included in DMEM as the cells were re-suspended for assay. […] Sigmoidal curves were fitted to plots of log10 inhibitor concentration vs percent effect using a custom made software application called SIGHTS and EC50 estimates determined by the software as the concentration of test compound giving an effect half way between the bottom and top assymptopes of the sigmoidal dose response curve. Each experiment included an EC50 determination for alpha melanocyte stimulating hormone, which was used as a standard to track assay consistency and allow fair comparison between EC50 estimates obtained in different experiments.

[2] = In vitro metabolism rate determination, human liver microsome (HLM) assay; format: in vitro ADME; conditions: human liver microsomes, substrate 1 μM; read-out: HLM (intrinsic clearance)
Text: In vitro Metabolism Rate Determination (Human Liver Microsome (HLM); Rat Liver Microsome (RLM) Assay)
Many drugs are metabolised by the cytochrome P450 mono-oxygenase system. This enzyme is found in high concentrations in the liver and is bound to the endoplasmic reticulum of the hepatocyte. The enzyme system can be obtained in semi-purified state by the preparation of the hepatic microsomal fractions. Determining a compound's in vitro half-life in such a system provides a useful indicator of metabolic stability.
Methodology For In Vitro Rate Determination Using Hepatic & Supermix Microsomes
The method outlined below is for a total incubation volume of 1.5 ml.
1. The following mixture is prepared in a test tube:
2. Defrost microsomes at room temperature and add sufficient microsomes to give a final concentration of 0.5 nmol cytochrome P450/ml of incubation e.g. for a 1.5 ml incubation, the volume of microsomes to be added is:
[formula] 3. Add sufficient MilliQ water to give a total incubation volume of 1.425 ml. 4. Remove 237.5 μl of incubation mix and place in test tube for PNA positive control. Add 2.5 μl of PNA solution, whirlimix, and put tube into a rack in the thermostatically controlled shaking water bath 5. Remove 100 μl for no substrate control and dispense in test tube. Place test tube in a rack in the thermostatically controlled shaking water bath. 6. Add substrate to the incubation. The substrate should be at an initial concentration of 1 μM. The volume of substrate required in the remaining 1.162.5 ml incubation is calculated as follows:
[formula] • N.B. The volume of organic solvent added should not exceed 0.1% of the total incubation volume. 7. Remove 100 μl of incubation mix into test tube for no cofactor control. Whirlimix and put into a rack in the thermostatically controlled shaking water bath. 8. Pre-incubate the tube containing the incubation mix, also positive control and no cofactor tubes in the thermostatically controlled shaking water bath set at 37° C. for approx 5 min. 9. Add NADP to initiate reaction (75 μl to each 1.162.5 ml incubation mix, 12.5 μl to positive control tube and 5 μl to no substrate tube) and take first time point immediately. The PNA positive control, no cofactor control and no substrate tubes are incubated for the total incubation time. 10. Remove 100 μl aliquots up to 9 different sampling points from 0 to 60 min (usually 0, 3, 5, 10, 15, 20, 30, 45 & 60 min) and terminate reaction. Longer incubation times can be used, but, after 120 min the microsomes deteriorate. The reaction may be terminated by addition of organic solvent, acid or base. At the end of the incubation process the no cofactor and no substrate controls in a similar manner i.e. terminate with the same reagent. 11. PNA Positive Control Procedure: • After the final sample has been taken, remove the positive control and add 1 ml 20% TCA to this tube. Also prepare a tube containing 250 μl of a PNP standard at 50 μM, and add 1 ml 20% TCA. Whirlimix both tubes and leave for approx 5 min to allow the protein to precipitate. • Centrifuge both tubes for approx 5 min in an instrument set at 3500 rpm. Remove 1 ml of supernatant and place into clean test tubes, discard the remainder. • Add 1 ml 10M NaOH to the supernatant, whirlimix, and leave to stand for approx min. Blank spectrophotometer with distilled water at 400 nm then measure absorbance of the PNP standard against distilled water. The microsomal 4-nitroanisole O-demethylase activity is calculated as follows: Calculation of Results
[formula] • The activity value from the incubation MUST be equal to or greater than 85% of the mean value of the batch used for the incubation to be valid. If this criteria is not met, then the incubation must be repeated. 11. Analyse samples (including no cofactor and no substrate control) by a specific assay for the substrate to determine the disappearance kinetics. Analysis Of Data […]

[3] = biological target: MC4 receptor (Homo sapiens, UniProt P32245); assay: MC4 functional agonist potency (EC50), assay protocol E of US2005/0176772 / WO 2005/077935; format: cell-based; conditions: functional potency at the MC4 receptor
MC4 receptor, sequence (P32245 whole entry): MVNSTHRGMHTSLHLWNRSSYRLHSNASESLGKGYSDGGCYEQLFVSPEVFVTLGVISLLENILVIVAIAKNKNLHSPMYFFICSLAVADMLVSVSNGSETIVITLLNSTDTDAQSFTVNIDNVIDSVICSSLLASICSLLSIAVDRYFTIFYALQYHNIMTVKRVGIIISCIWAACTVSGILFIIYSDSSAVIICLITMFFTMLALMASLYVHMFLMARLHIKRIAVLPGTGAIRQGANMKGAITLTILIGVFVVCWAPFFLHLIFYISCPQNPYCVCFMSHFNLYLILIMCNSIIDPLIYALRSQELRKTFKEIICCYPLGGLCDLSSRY
Method: The compounds of formula (I) of the present invention have utility as MCR4 agonists in the treatment of various disease states.
MC5 and MC4 EC50 activity was determined as described by assay protocols D and E, respectively, in US2005/0176772 (pages 28-30).

Structure (SMILES) | EC50 [1] [nM] | microsomal CLint at 1 μM [2] [µL/min/mg] | EC50 [3] [nM]
C[C@@H]1CN(C(=O)[C@@H]2CN(c3cncc(F)c3)C[C@H]2c2ccc(Cl)cn2)C[C@H](C)[C@@]1(O)c1ccccn1 [Example 8, (3R,4R,5S)-1-{[(3S,4S)-4-(5-chloropyridin-2-yl)-1-(5-fluoropyridin-3-yl)pyrrolidin-3-yl]carbonyl}-3,5-dimethyl-4-pyridin-2-ylpiperidin-4-ol] | 1090 | > 440 | 27.5
CC1CN(C(=O)C2CN(c3cncc(F)c3)CC2c2ccc(Cl)cn2)CC(C)C1(O)c1ccc(F)cc1 (stereo not drawn) [Example 25] | 189 | 308 | 12.4
CC1CN(C(=O)C2CN(c3ccc(=O)n(C)n3)CC2c2ccc(Cl)cn2)CC(C)C1(O)c1ccccc1 (stereo not drawn) [Example 21] | 283 | 144 | 2.81
CC1CN(C(=O)C2CN(c3ccc(C#N)nn3)CC2c2ccc(Cl)cn2)CC(C)C1(O)c1ccccn1 (stereo not drawn) [Example 30] | 61.5 | 141 | 5.77
COc1ccc([C@@H]2CN(c3ccc(=O)[nH]n3)C[C@H]2C(=O)N2C[C@@H](C)[C@](O)(c3ccc(Cl)cn3)[C@@H](C)C2)nc1 [Example 41] | > 33300 | 21 | 655
C[C@@H]1CN(C(=O)[C@@H]2CN(c3ccc(=O)n(C)n3)C[C@H]2c2ccc(Cl)cn2)C[C@H](C)[C@@]1(O)C1CCCCC1 [Example 17] | 54.9 | > 440 | 1.59
C[C@@H]1CN(C(=O)[C@@H]2CN(c3ccc(Cl)nn3)C[C@H]2c2ccc(Cl)cn2)C[C@H](C)[C@@]1(O)c1ccccn1 [Example 31] | 410 | 188 | 22.9
C[C@@H]1CN(C(=O)[C@@H]2CN(c3ccc(=O)n(C)n3)C[C@H]2c2ccc(Cl)cn2)C[C@H](C)[C@@]1(O)c1ccc(Cl)cn1 [Example 10] | 493 | 20.5 | 11.9
CC1CN(C(=O)C2CN(c3ccc(=O)n(C)n3)CC2c2ccc(Cl)cn2)CC(C)C1(O)c1ccc(F)c(F)c1 (stereo not drawn) [Example 19] | 425 | 21 | 6.5
CC1CN(C(=O)C2CN(c3ccc(C#N)cn3)CC2c2ccc(C#N)cn2)CC(C)C1(O)c1ccc(F)cc1 (stereo not drawn) [Example 45] | 66.1 | < 7 | 44.4
CC1CN(C(=O)C2CN(c3ccc(=O)[nH]n3)CC2c2ccc(Cl)cn2)CC(C)C1(O)c1ccccc1 (stereo not drawn) [Example 27] | 390 | 51 | 4.54
C[C@@H]1CN(C(=O)[C@@H]2CN(c3ccc(=O)n(C)n3)C[C@H]2c2ccc(Cl)cn2)C[C@H](C)[C@@]1(O)C1CC1 [Example 18] | > 8520 | 67 | 55.5
COc1ccc(C2(O)C(C)CN(C(=O)C3CN(c4ccc(=O)n(C)n4)CC3c3ccc(Cl)cn3)CC2C)cc1 (stereo not drawn) [Example 20] | 1120 | 31 | 16.4
C[C@@H]1CN(C(=O)[C@@H]2CN(c3ccc(=O)n(C)n3)C[C@H]2c2ccc(Cl)cn2)C[C@H](C)[C@@]1(O)c1ccccn1 [Example 22] | 1050 | 179 | 19.8
COc1ccc(C2CN(c3ccc(C#N)nn3)CC2C(=O)N2CC(C)C(O)(c3ccc(F)cc3)C(C)C2)cn1 (stereo not drawn) [Example 16] | 323 | < 45.5 | 34.3
